Results taken from ChEMBL document CHEMBL4811222, “Antitumor Activity of Asperphenin B by Induction of Apoptosis and Regulation of Glyceraldehyde-3-phosphate Dehydrogenase in Human Colorectal Cancer Cells” (J Nat Prod, 2021).
Calls of active or inactive are those of the source. The calls are words filed in the database; no cut-off is given here.

Experiments:
[1] = system: RKO; experiment: Induction of cell cycle arrest in human RKO cells assessed as accumulation at G2/M phase at 2.5 uM after 24 hrs by RNase A/propidium iodide staining based flow cytometric analysis (reference value: 24.38 %); assay type: functional
[2] = system: RKO; experiment: Induction of cell cycle arrest in human RKO cells assessed as accumulation at S phase at 2.5 uM after 48 hrs by RNase A/propidium iodide staining based flow cytometric analysis (reference value: 13.33 %); assay type: functional
[3] = system: RKO; experiment: Induction of apoptosis in human RKO cells assessed as total apoptotic cells at 10 uM after 48 hrs by Annexin V/PI staining based flow cytometric analysis; assay type: functional
[4] = system: RKO; experiment: Induction of apoptosis in human RKO cells assessed as modulation of p53 expression level after 48 hrs by Western blotting analysis; assay type: functional, cell-based; conditions: dose 2.5-10 µM
[5] = system: RKO; experiment: Induction of cell cycle arrest in human RKO cells assessed as accumulation at G2/M phase at 1.25 uM after 24 hrs by RNase A/propidium iodide staining based flow cytometric analysis (reference value: 24.38 %); assay type: functional
[6] = system: RKO; experiment: Induction of apoptosis in human RKO cells assessed as modulation of survivin expression level after 48 hrs by Western blotting analysis; assay type: functional, cell-based; conditions: dose 2.5-10 µM
[7] = system: RKO; experiment: Induction of cell cycle arrest in human RKO cells assessed as upregulation of p-Cdc2 at Y15 residue expression measured after 24 hrs by Western blot analysis; assay type: functional, cell-based; conditions: dose 1.25-5 µM
[8] = system: CCD-18Co; experiment: Antiproliferative activity against human CCD-18Co cells assessed as inhibition of cell growth incubated for 72 hrs by SRB assay; assay type: cell-based
[9] = system: RKO; experiment: Induction of apoptosis in human RKO cells assessed as decrease in survivin expression at 2.5 uM by Western blotting analysis; assay type: functional, cell-based; conditions: time 12-48 hrs, TDE = time-dependent effect
[10] = system: RKO; experiment: Induction of apoptosis in human RKO cells assessed as modulation of cleaved caspase 9 expression level after 48 hrs by Western blotting analysis; assay type: functional, cell-based; conditions: dose 2.5-10 µM
[11] = system: RKO; experiment: Induction of cell cycle arrest in human RKO cells assessed as upregulation of phospho-Chk2 expression at 1.25 to 5 uM measured after 24 hrs by Western blot analysis; assay type: functional, cell-based; conditions: dose 1.25-5 µM
[12] = system: RKO; experiment: Induction of E-cadherin expression in human RKO cells after 24 hrs by Western blotting analysis; assay type: functional, cell-based
[13] = system: RKO; experiment: Induction of cell cycle arrest in human RKO cells assessed as accumulation at G2/M phase at 2.5 uM after 12 hrs by RNase A/propidium iodide staining based flow cytometric analysis (reference value: 24.63 %); assay type: functional
[14] = system: RKO; experiment: Antiproliferative activity against human RKO cells assessed as inhibition of cell growth incubated for 72 hrs by SRB assay; assay type: functional, cell-based
[15] = system: RKO; experiment: Induction of apoptosis in human RKO cells assessed as modulation of cleaved caspase 3 expression level after 48 hrs by Western blotting analysis; assay type: functional, cell-based; conditions: dose 2.5-10 µM
[16] = system: RKO; experiment: Induction of cell cycle arrest in human RKO cells assessed as accumulation at sub-G1 phase at 5 uM after 24 hrs by RNase A/propidium iodide staining based flow cytometric analysis (reference value: 0.40 %); assay type: functional
[17] = system: RKO; experiment: Induction of cell cycle arrest in human RKO cells assessed as accumulation at G0/G1 phase at 2.5 uM after 24 hrs by RNase A/propidium iodide staining based flow cytometric analysis (reference value: 51.49 %); assay type: functional
[18] = system: RKO; experiment: Induction of cell cycle arrest in human RKO cells assessed as accumulation at G0/G1 phase at 1.25 uM after 24 hrs by RNase A/propidium iodide staining based flow cytometric analysis (reference value: 51.49 %); assay type: functional
[19] = system: RKO; experiment: Induction of apoptosis in human RKO cells assessed as increase in cleaved PARP expression at 2.5 uM measured upto 48 hrs by Western blotting analysis; assay type: functional, cell-based; conditions: time hrs <=48
[20] = system: RKO; experiment: Induction of cell cycle arrest in human RKO cells assessed as accumulation at sub-G1 phase at 1.25 uM after 24 hrs by RNase A/propidium iodide staining based flow cytometric analysis (reference value: 0.40 %); assay type: functional
[21] = Toxicity in BALB/c nude mouse implanted with human RKO cells assessed as change in body weight at 4 to 8 mg/kg, ip administered three times per week for 21 days; assay type: organism-based; conditions: in vivo, 504 h, dose 4-8 mg/kg, time 21 day
[22] = system: HCT-116; experiment: Antiinvasive activity against human HCT116 cells implanted in nude mouse assessed as inhibition of liver cells invasion after 24 hrs by transwell assay; assay type: functional, cell-based; conditions: dose 3-6 µM
[23] = system: RKO; experiment: Induction of cell cycle arrest in human RKO cells assessed as accumulation at S phase at 1.25 uM after 24 hrs by RNase A/propidium iodide staining based flow cytometric analysis (reference value: 24.20 %); assay type: functional
[24] = system: RKO; experiment: Induction of cell cycle arrest in human RKO cells assessed as accumulation at G0/G1 phase at 2.5 uM after 36 hrs by RNase A/propidium iodide staining based flow cytometric analysis (reference value: 60.58 %); assay type: functional
[25] = system: RKO; experiment: Induction of cell cycle arrest in human RKO cells assessed as accumulation at S phase at 5 uM after 24 hrs by RNase A/propidium iodide staining based flow cytometric analysis (reference value: 24.20 %); assay type: functional
[26] = system: RKO; experiment: Induction of apoptosis in human RKO cells assessed as increase in p53 level at 2.5 uM measured upto 48 hrs by Western blotting analysis; assay type: functional, cell-based; conditions: time hrs <=48
[27] = system: RKO; experiment: Antitumor activity against human RKO cells implanted in ip dosed BALB/c nude mouse assessed as suppression of GAPDH expression in tumor lysates administered three times per week for 21 days by Western blotting analysis; assay type: functional, organism-based; conditions: Neoplasm, time 21.0 day
[28] = system: RKO; experiment: Induction of cell cycle arrest in human RKO cells assessed as upregulation of phospho-Chk1 expression at 1.25 to 5 uM measured after 24 hrs by Western blot analysis; assay type: functional, cell-based; conditions: dose 1.25-5 µM
[29] = system: RKO; experiment: Induction of cell cycle arrest in human RKO cells assessed as accumulation at S phase at 2.5 uM after 12 hrs by RNase A/propidium iodide staining based flow cytometric analysis (reference value: 13.33 %); assay type: functional
[30] = system: RKO; experiment: Induction of cell cycle arrest in human RKO cells assessed as accumulation at S phase at 2.5 uM after 36 hrs by RNase A/propidium iodide staining based flow cytometric analysis (reference value: 13.33 %); assay type: functional
[31] = system: RKO; experiment: Antiproliferative activity against human RKO cells over expressing GAPDH at 1 to 8 uM after 72 hrs by SRB assay; assay type: functional, cell-based; conditions: dose 1-8 µM
[32] = system: RKO; experiment: Induction of cell cycle arrest in human RKO cells assessed as accumulation at G2/M phase at 5 uM after 24 hrs by RNase A/propidium iodide staining based flow cytometric analysis (reference value: 24.38 %); assay type: functional
[33] = system: RKO; experiment: Antitumor activity against human RKO cells implanted in BALB/c nude mouse assessed as suppression of Ki67 expression level in tumor lysates at 4 to 8 mg/kg, ip administered three times per week for 21 days by Western blotting analysis; assay type: functional, organism-based; conditions: Neoplasm, dose 4-8 mg/kg, time 21.0 day
[34] = system: CCD-841CoN; experiment: Antiproliferative activity against human CCD-841CoN cells assessed as inhibition of cell growth incubated for 72 hrs by SRB assay; assay type: cell-based
[35] = system: RKO; experiment: Induction of cell cycle arrest in human RKO cells assessed as accumulation at G0/G1 phase at 5 uM after 24 hrs by RNase A/propidium iodide staining based flow cytometric analysis (reference value: 51.49 %); assay type: functional

Compound `CCCCCCCCC[C@@H](O)CC(=O)N[C@@H](CC(N)=O)C(=O)N[C@@H](CCC(N)=O)C(=O)N[C@H](CC(=O)c1cc(C)cc(O)c1C(=O)c1c(O)cccc1O)CC(C)C` has an Activity [1] of 44.01%, an Activity [2] of 10.43% and an Activity [3] of 51.04%. For the same compound, the Activity [4] was “Dose-Dependent Effect”, the Activity [5] was 29.42% and the Activity [6] was “Dose-Dependent Effect”. The Activity [7] was “Dose-Dependent Effect”, the IC50 [8] was 39.1 µM and the Activity [9] was “Tde”. For the same compound, the Activity [10] was “Dose-Dependent Effect”, the Activity [11] was “Active” and the Activity [12] was “Active”. The Activity [13] was 27.91%, the Activity [14] was “Dose-Dependent Effect” and the IC50 [14] was 0.93 µM. For the same compound, the Activity [15] was “Dose-Dependent Effect”, the Activity [16] was 1.1% and the Activity [17] was 32.4%. For the same compound, the Activity [18] was 46.96%, the Activity [19] was “Active” and the Activity [20] was 0.41%. The Activity [21] was “Non-Toxic”, the inhibition [22] was “Dose-Dependent Effect” and the Activity [23] was 23.61%. For the same compound, the Activity [24] was 22.38%, the Activity [25] was 22.13% and the Activity [26] was “Active”. The Activity [27] was “Dose-Dependent Effect”, the Activity [28] was “Active” and the Activity [29] was 16.82%. For the same compound, the Activity [30] was 10.45%, the Activity [31] was “Active” and the Activity [32] was 51.77%. The Activity [33] was “Active”, the IC50 [34] was 47.2 µM and the Activity [35] was 25.55%.
